Data as given in ChEMBL document CHEMBL4052753, “Antileishmanial potential of fused 5-(pyrazin-2-yl)-4H-1,2,4-triazole-3-thiols: Synthesis, biological evaluations and computational studies” (Bioorg Med Chem Lett, 2017).
Active and inactive are the calls of the source. No cut-off for these calls is given here.

What was measured:
Leishmania donovani [1] = assay: Antileishmanial activity against Leishmania donovani NHOM/IN/80/DD8 promastigote forms assessed as reduction in parasite growth after 72 hrs by MTT assay; type: functional; settings: NHOM/IN/80/DD8, 72 h
[2] = Antioxidant activity assessed as DPPH free radical scavenging activity after 30 mins; type: functional
Leishmania donovani [3] = assay: Antileishmanial activity against Leishmania donovani NHOM/IN/80/DD8 promastigote forms assessed as reduction in parasite growth up to 500 uM after 72 hrs by MTT assay; type: functional
HeLa = assay: Cytotoxicity against human HeLa cells at 500 ug/ml after 72 hrs by MTT assay; type: cell-based

SMILES: Sc1nnc(-c2cnccn2)n1/N=C/c1ccc(Cl)cc1
- IC50 (Leishmania donovani [1]): 198 µM
- IC50 [2]: 39.8 µM

SMILES: S=C(Nc1ccc2ccccc2c1)Nn1c(S)nnc1-c1cnccn1
- IC50 (Leishmania donovani [1]): 336 µM
- IC50 [2]: 75.9 µM

SMILES: Sc1nnc(-c2cnccn2)n1/N=C/c1ccc(Cl)cc1Cl
- IC50 (Leishmania donovani [1]): 241 µM
- IC50 [2]: 81.2 µM

SMILES: S=C(Nc1ccc(Cl)cc1)Nn1c(S)nnc1-c1cnccn1
- Activity (Leishmania donovani [3]): inactive
- IC50 [2]: 75.9 µM

SMILES: S=C(Nc1ccc(Cl)c(Cl)c1)Nn1c(S)nnc1-c1cnccn1
- IC50 (Leishmania donovani [1]): 229 µM
- IC50 [2]: 81.2 µM

SMILES: Oc1ccc(/C=N/n2c(S)nnc2-c2cnccn2)cc1
- IC50 (Leishmania donovani [1]): 79 µM
- Activity (HeLa): Non-Toxic
- IC50 [2]: 58.9 µM

SMILES: Fc1ccc(NC(=S)Nn2c(S)nnc2-c2cnccn2)cc1
- IC50 (Leishmania donovani [1]): 322 µM
- IC50 [2]: 69.2 µM

SMILES: Oc1ccccc1/C=N/n1c(S)nnc1-c1cnccn1
- IC50 (Leishmania donovani [1]): 102 µM
- IC50 [2]: 75.9 µM

SMILES: S=C(Nc1ccccc1)Nn1c(S)nnc1-c1cnccn1
- Activity (Leishmania donovani [3]): inactive
- IC50 [2]: 58.8 µM

SMILES: Oc1ccc2ccccc2c1/C=N/n1c(S)nnc1-c1cnccn1
- IC50 (Leishmania donovani [1]): 178 µM
- IC50 [2]: 69.2 µM

SMILES: Fc1ccc(NC(=S)Nn2c(S)nnc2-c2cnccn2)c(F)c1
- IC50 (Leishmania donovani [1]): 176 µM
- IC50 [2]: 58.9 µM

SMILES: CN(C)c1ccc(/C=N/n2c(S)nnc2-c2cnccn2)cc1
- IC50 (Leishmania donovani [1]): 113 µM
- IC50 [2]: 14 µM

SMILES: Sc1nnc(-c2cnccn2)n1/N=C/c1ccccc1
- IC50 (Leishmania donovani [1]): 95.2 µM
- IC50 [2]: 52.4 µM

SMILES: Oc1ccc(/C=N/n2c(S)nnc2-c2cnccn2)c(O)c1
- IC50 (Leishmania donovani [1]): 106 µM
- IC50 [2]: 75.9 µM

SMILES: CCOc1ccc(/C=N/n2c(S)nnc2-c2cnccn2)cc1OC
- IC50 (Leishmania donovani [1]): 190 µM
- IC50 [2]: 58.8 µM

SMILES: S=C(Nc1ccc(Cl)cc1Cl)Nn1c(S)nnc1-c1cnccn1
- IC50 (Leishmania donovani [1]): 79 µM
- IC50 [2]: 58.9 µM

SMILES: FC(F)(F)c1ccc(NC(=S)Nn2c(S)nnc2-c2cnccn2)cc1
- IC50 (Leishmania donovani [1]): 289 µM
- IC50 [2]: 58.8 µM

SMILES: CCc1ccc(/C=N/n2c(S)nnc2-c2cnccn2)cc1
- IC50 (Leishmania donovani [1]): 201 µM
- IC50 [2]: 47.7 µM

SMILES: O=[N+]([O-])c1cccc(/C=N/n2c(S)nnc2-c2cnccn2)c1
- IC50 (Leishmania donovani [1]): 347 µM
- IC50 [2]: 72.4 µM

SMILES: Fc1cccc(NC(=S)Nn2c(S)nnc2-c2cnccn2)c1
- IC50 (Leishmania donovani [1]): 287 µM
- IC50 [2]: 14 µM

SMILES: O=C1O[C@H]([C@@H](O)CO)C(O)=C1O [ASCORBIC ACID]
- IC50 [2]: 14 µM

SMILES: Fc1ccc(/C=N/n2c(S)nnc2-c2cnccn2)cc1
- IC50 (Leishmania donovani [1]): 382 µM
- IC50 [2]: 58.8 µM

SMILES: N#Cc1ccc(/C=N/n2c(S)nnc2-c2cnccn2)cc1
- IC50 (Leishmania donovani [1]): 99 µM
- IC50 [2]: 47.8 µM
